Reference: US9994915B2, “miR-211 expression and related pathways in human melanoma” (Sanford-Burnham Medical Research Institute, priority 2010, dated 2018)

What was measured:
Assay type in all cases: cell-based, human
WM1552C melanoma cells = assay: Matrigel invasion chamber assay; details: 48 hours
Protocol: BD BioCoat™ growth factor reduced insert plates (Matrigel™ Invasion Chamber 12 well plates) were prepared by rehydrating the BD Matrigel™ matrix coating in the inserts with 0.5 mls of serum-free Complete Tu media for two hours at 37° C. The rehydration solution was carefully removed from the inserts, 0.5 ml Complete Tu (2% FBS) was added to the lower wells of the plate, and 2.5×10^4 cells suspended in 0.5 ml of serum-free Complete Tu media were added to each insert well. WM1552C/211(800) cells were additionally transfected with the Anti-miR miRNA Inhibiter for hsa-miR-211 as well as Negative Control #1 (Ambion) (miR-Scramble) at a concentration of 100 nM using siPORT NeoFX (Ambion). […] The number of migrating tumor cells was counted from each of five images per cell line (including miR Inhibiter transfected cells) in the central area of the filter. […] Data are expressed as the percent invasion through the membrane relative to the migration of WM1552C (Wild Type) through the membrane.
The impact of miR-211 expression on the invasive properties of WM1552C. WM1552C/211(400) and WM1552C/211(800) cells, along with WM1552C/VO, WM1552C/KC KO, and untransfected WM1552C was determined. […]
2.5×10^5 cells WM1552C/211(800) cells were seeded into wells of a 6-well plate. […] After 48 hours, the cells were harvested by trypsinization and counted using an automated cell counter (Cellometer®, Nexcelom Bioscience). […]

IGFBP5 3′UTR = assay: luciferase reporter target inhibition assay with IGFBP5 3′UTR; details: A375/211 cells
Text: A putative miR-211 binding site with the sequence 5′-aaagggaa-3′ (SEQ ID NO:40) is present in the 3′-UTR of the IGFBP5 mRNA (SEQ ID NO:41; FIG. 26). In order to investigate the specificity and mechanism of miR-211 inhibition of IGFBP5, three luciferase reporter constructs were created, each having a different 3′-UTR on the luciferase gene. The constructs were as follows: (i) luciferase coding sequence with the luciferase 3′-UTR (“pcDNA6/Luc/NP3”), (ii) luciferase coding sequence with the IGFBP5 3′-UTR (“pcDNA6/Luc/NP3/IGFBP5 3′UTR”), and (iii) luciferase coding sequence with the IGFBP5 3′-UTR having a mutation in the miR-211 binding site (“pcDNA6/Luc/NP3/IGFBP5 3′UTR Mut”). The mutant miR-211 binding site is represented by SEQ ID NO:42 (5′-taagccta-3′). Vectors encoding these constructs were transfected into native A375 cells, A375 cells containing the miR-211-expressing vector (“A375/211”), or A375 cells having an empty vector (“A375/VO”). […] In the miR-211-expressing A375 cells, luciferase expression was unaffected for the constructs containing the native luciferase 3′UTR and the IGFBP5 3′UTR in which the miR-211 binding site had been altered. However, the luciferase activity was reduced by nearly 40% when the native IGFBP5 3′UTR was expressed.

A375 cells = assay: cell counts in hypoxic chamber (2% O2), A375/211; details: A375/211 cells, hypoxic chamber 2% O2 (parental A375 about 68%)
Text: To test under actual hypoxic conditions, both cell lines were placed into a hypoxic chamber containing 2% O2 prior to determination of cell counts. […] As in the DFO-simulated hypoxic condition assay, the presence of miR-211 caused the effect to be greatly exacerbated, reducing survival to about 29%.

KCNMA1 transcript = assay: qRT-PCR of KCNMA1 transcript in WM1552C lines; details: WM1552C/211(400)
Protocol: Expression levels of all statistically significant and differentially expressed mRNAs and miRNAs were confirmed by qRT-PCR using TaqMan® expression kits (Applied Biosystems) using multiple technical and biological replicates. GAPDH was used as the internal reference probe for normalization of expression values of mRNA, and RNU48 was used for normalization of miRNA. RNA analysis by Northern blots used 20 μg of total RNA concentrated from each sample (melanoma cell lines and melanocytes), separated on 15% urea denaturing polyacrylamide gels by electrophoresis. Gels were electroblotted to nylon membranes, cross-linked by UV, prehybridized in ULTRAhyb®-Oligo (Ambion) for 30 minutes at 42° C., and hybridized with 5′-biotinylated anti-miRNA DNA oligonucleotides (100 nM each) at 42° C. overnight, washed, and detected by chemiluminescence (Brightstar® detection kit, Ambion). Anti-U6 probes were used as a reference control (at 10 pM).
qRT-PCR analyses were then run to determine whether the induced expression of miR-211 in melanoma cells could reduce KCNMA1 transcript levels. […] To further confirm our observations, we measured the correlation between miR-211 expression and KCNMA1 protein levels (FIG. 6D). […] Melanocytes were transfected with anti-miR-211 inhibitors (Exiqon) and the protein expression of KCNMA1 was measured.

## miR-211: pre-miR-211 sequence stably expressed from plasmid pcDNA4/miR-211 in melanoma cells; mature sequence UUCCCUUUGUCAUCCUUCGCCU (SEQ ID NO: 15) (listed as Homo sapiens)
WM1552C melanoma cells; WM1552C/211(400)
  migrated less than WM1552C (invasion): ~40%
WM1552C melanoma cells; WM1552C/211(800)
  migrated less than WM1552C (invasion): ~60%
IGFBP5 3′UTR; native IGFBP5 3′UTR construct
  reduction of luciferase activity: ~40%
IGFBP5 3′UTR; native luciferase 3′UTR or IGFBP5 3′UTR with altered miR-211 binding site
  luciferase expression: unaffected
A375 cells
  survival vs normoxic condition cells: about 29%
KCNMA1 transcript
  KCNMA1 transcript expression vs wild type WM1552C: down-regulates
